Test system: HCT116 colon cancer cells
Assay: KSP cellular assay (phospho-histone H3 / MPM2 immunofluorescence)
Assay type: cell-based
Conditions: Homo sapiens, HCT-116, 16 hours with drug, percent of cells staining positive for Phos-Histone H3 (ser10) / Phos-MPM2
Experimental: HCT116 colon cancer cells were grown in DMEM:F12 media with 10% heat inactivated FBS at 37 degrees with 5% CO2. Cells were plated at 7,500 cells per well in PDL coated 384-well tissue culture plates. 6 hours later media was removed and new media containing drug was added. Cells were incubated with drug for 16 hours. All further steps were performed at room temperature in the dark. Cells were fixed with 25 ul/well Prefer fixation solution plus 250 nM Hoechst dye and incubated for 30 minutes. The fixation solution was removed and cells were washed with PBS. Cells were then permeabilized with 25 uliwell 0.2% Triton-X in PBS and incubated for 10 minutes. Cells were washed with PBS and then incubated with 25 ul/well PBS containing 3% FBS for 30 minutes. Cells were then stained overnight at 4 degrees with 25 uliwell antibody solution in PBS plus 3% FBS. Antibodies used were Phos-Histone H3 (ser10)-Alexa Flur 488 Conjugate and Phos-MPM2 Texas Red Conjugate. Cells were washed with PBS and then immunofluorescence images captured with HT Pathway microscope. The percent of cells staining positive was calculated and EC50 values for the compounds of the invention that were tested were determined using Excel XLfit.
EC50 Determinations: Dose-response curves were plotted from inhibition data generated each in duplicate, from 8 point serial dilutions of inhibitory compounds. Concentration of compound was plotted against enzyme activity (OD reading). To generate EC50 values, the dose-response curves were then fitted to a standard sigmoidal curve and EC50 values were derived by nonlinear regression analysis.

EC50 [µM] | Structure (SMILES)
> 1 | CC(=O)N1N=C(c2cc(F)ccc2F)OC12CCCc1ccccc12 (centres unmarked) [compound 103]
> 1 | CC(=O)N1N=C(c2cc(F)ccc2F)OC12CCSc1ccccc12 (centres unmarked) [compound 102]
> 1 | CC(=O)N1N=C(c2cc(F)ccc2F)OC12COc1ccccc12 (centres unmarked) [compound 104]
> 1 | CC(=O)N1N=C(c2cc(F)ccc2F)OC12CCOc1ccccc12 (centres unmarked) [compound 105]
> 1 | CC(=O)N1N=C(c2cc(F)ccc2F)OC12CCCc1sccc12 (centres unmarked) [compound 101]

Source: US20110171172A1, “COMPOUNDS FOR INHIBITING KSP KINESIN ACTIVITY” (priority 2007, published 2011)
